Where a SMILES comes first, the peptide text is derived from it.
Tests used:
[1] = target: T1, α-syn (Homo sapiens, UniProt P37840); assay: Far-UV CD of fibrillated α-syn–peptide samples; type: biochemical; settings: fibrillated samples after washing, signal at 218 nm; versus α-syn alone
T1 construct: made in house; host or cells: Escherichia coli BL21 (DE3), plasmid pET11-D
Text: To analyze the secondary structure of the final aggregates, we recorded far-UV CD and attenuated total reflectance (ATR)–FTIR spectra for fibrillated samples after washing to remove free α-syn and peptides. […] Overall, as the concentration of peptides increases, the intensity of signal at 218 nm decreases (Fig. 4A). We observed that α-syn fibrils formed in the presence of p194, p222, p235, and p249 precipitated rapidly after mixing with these peptides. This likely gives rise to light scattering, which reduces CD signals. To overcome these artifacts, we turned to ATR–FTIR spectroscopy, which is not sensitive to scattering. […] Both far-UV CD and ATR–FTIR spectroscopy confirm extensive β-sheet structure. However, in the presence of peptides, some structural changes were observed as reflected by the decrease in the amyloid cross β-sheet structure at ∼1629 cm^−1 and increases in the random and coil structures (∼1656 and ∼1676 cm^−1, respectively) (Table 2). […] Taking all together, ATR–FTIR data are in reasonable agreement with far-UV CD.
To remove free α-syn and peptides, fibrillated samples were centrifuged (13,000 rpm, 15 min). This leaves monomeric α-syn plus unbound and free peptides in the supernatant. The supernatant was discarded, and the pellet was washed two times in the same volume of PBS buffer, pH 7.4, to ensure complete removal of monomeric α-syn and free peptides. Far-UV CD spectra were recorded at 25 °C on a Chirascan CD Spectrophotometer (Applied Photophysics) using a 0.1 mm quartz cuvette in the wavelength range of 200 to 260 nm with 1 nm bandwidth and three accumulations. The buffer spectrum was subtracted, and the results were expressed as mean residue ellipticity [θ] (deg cm^2 dmol^−1).

[2] = tested on: SH-SY5Y cells; assay: MTT cell viability assay, substance alone; settings: for Cell viability (MTT): SH-SY5Y cells, 35 μg/ml peptide alone, 24 h
Protocol: The effect of the peptides on αSOs toxicity in SH-SY5Y cells using 3-(4, 5-dimethylthiazol-2-yl)-2,5-diphenyltetrazolium bromide (MTT) cell viability assay was also tested to complement our calcein data.
We used the MTT assay to measure cell viability after 24 h treatment with αSOs in the presence of peptides. SH-SY5Y cells were seeded in 96-well plates at a density of 5 × 10^4 cell/ml in Dulbecco's modified Eagle's medium supplemented with 10% FBS, 100 unit/ml penicillin, and […]. The cells were incubated in a humidified atmosphere incubator with 5% CO2 and 95% humidity at 37 °C for 24 h. The culture medium was then replaced with fresh medium containing 10 μM αSOs with peptides and incubated for another 24 h. Then the cell medium was replaced with a fresh medium containing 20% MTT (5 mg/ml), and the cells were incubated for an additional 4 h at 37 °C. Then 100 μl of dimethyl sulfoxide was added to dissolve formazan crystals by incubating for 30 min on a shaker at RT. Consequently, absorbance was measured by using a plate reader at 570 nm.

[3] = Calcein release assay, substance alone; settings: for Peptide concentration from which membrane toxicity is shown: peptide alone, calcein-filled DOPG LUVs, tested range 10^−1–10^−6 mg/ml
Protocol: αSOs show cytotoxic properties, which have been attributed to their membrane-disrupting ability ([69]). To examine the effect of peptides on membrane permeabilization by αSOs, we used a simple calcein release assay. αSOs, peptides, and aSO–peptide mixtures at 10^−6 to 10^−1 mg/ml peptide were added to calcein-loaded DOPG vesicle, and the extent of calcein release was monitored for 30 min by the increase in fluorescence as calcein leaks out upon membrane permeabilization, leading to dilution and the loss of self-quenching. The time-dependent calcein release data from DOPG vesicles ([70], [71]) in the presence of peptides, αSOs, and αSO–peptides are shown in Figs. S9 and S10. In order to allow easy comparison of all peptides, the calcein release versus concentration (peptides and αSOs) were plotted at the plateau point of release (Fig. 5, A–C). […] Figure 5D compares calcein release percentages of data represented in Figure 5, A and B at peptide concentrations between 0.001 and 0.1 mg/ml, where we see the largest extent of calcein release in general.
Calcein-filled vesicles of DOPG were prepared as described before ([38]). Briefly, DOPG was dissolved in PBS to […], in the presence of calcein at self-quenching concentrations (70 mM) and subjected to 10 freeze–thaw cycles between liquid nitrogen and a 50 °C water bath. After 21 times extrusion through a 100 nm filter, free calcein was separated from vesicles with a PD-10 desalting column (GE Healthcare). Vesicles were stored at 4 °C and used for calcein release assays within 24 h.
Calcein release was measured by mixing peptides and/or αSOs at a final concentration of 10^−6 to 10^−1 mg/ml and 5.2 μg/ml, respectively, in 148 μl with 2 μl of calcein vesicles, and were then loaded onto a 96-well plate (Nunc, Thermo Fischer Scientific) in triplicate. The plate was sealed with Crystal clear sealing tape (Hampton Research), and fluorescence was measured (excitation: 485 nm and emission: 520 nm) for 1 h at 37 °C every 2 min with a 2 s autoshake before each reading on a fluorescence plate reader (Tecan). Finally, 2 μl Triton X-100 (0.2% [v/v]) was added to lyse vesicles, and the maximal fluorescence signal was measured for 20 min under the same reading condition. Background fluorescence was subtracted, and the average signal of calcein release before addition of Triton X-100 (F), after treatment with Triton X-100 (Ft) and for the buffer control (F0) were determined, and calcein release percentage was calculated as follow (Equation 1):(1) CalceinRelease%(CR%)=(F−F0)/(Ft−F0)

[4] = target: T1, α-syn; assay: SDS-PAGE of soluble α-syn left in supernatant after fibrillation; type: biochemical; settings: for Amount of soluble α-syn monomer left in the supernatant, in words: SDS-PAGE after centrifugation of fibrillated samples; for Soluble α-syn left in supernatant (SDS-PAGE gel): after end of incubation, centrifuged 13,000 rpm 15 min, versus α-syn alone
Protocol: Overall, there was a reasonable but not perfect correspondence between SDS-PAGE and ThT data.
To determine the amount of soluble α-syn, fibrillated samples were centrifuged (13,000 rpm, 15 min) and the supernatants were loaded on Bis–Tris 15% acrylamide gel with prestained protein ladder (Thermo Scientific) and run in a Bis–Tris running buffer at 150 V for 70 min, stained for 20 min in Coomassie brilliant blue (1.2 mM Coomassie brilliant blue, 5% ethanol, and 7% acetic acid), and destained overnight in a destaining solution (5% ethanol and 5% acetic acid). Gel bands were quantified using ImageJ.

[5] = target: T1, α-syn; assay: TEM of α-syn aggregates formed with peptides; type: biochemical; settings: for Morphology (TEM): α-syn aggregates after incubation with peptide, versus α-syn alone; for Morphology of α-syn aggregates (TEM), in words: α-syn incubated in the presence of peptide
Protocol: Five microliters of each fibril-containing solution were applied to 400-mesh carbon-coated and glow-discharged nickel grids for 30 s, and blotted with filter paper to remove excess sample. The grids were washed with one drop of double distilled water and then stained with 3 μl of 1% uranyl formate for 15 s. Excess stain was removed by blotting paper This step was repeated two more times. Finally, the grids were left to air dry and viewed on a Tecnai G2 Spirit (FEI Company) operating at 60 kV, and images were taken using a TemCam F416 camera (TVIPS).

## CC(C)C[C@H](NC(=O)[C@H](Cc1c[nH]cn1)NC(=O)[C@H](CO)NC(=O)[C@H](CO)NC(=O)[C@H](C)NC(=O)[C@@H](N)CO)C(=O)N[C@@H](Cc1c[nH]cn1)C(=O)N[C@@H](Cc1c[nH]cn1)C(=O)NCC(=O)N[C@@H](Cc1c[nH]cn1)C(=O)N[C@@H](CO)C(=O)NCC(=O)NCC(=O)O [p168] (H-SASSHLHHGHSGG-OH)
[1]
  Far-UV CD (β-sheet structures): ↓↓β
[2]
  Cell viability (MTT): 94%
[3]; calcein-loaded DOPG vesicles, 10^−6 to 10^−1 mg/ml peptide, 37 °C, triplicate
  Permeabilization of lipid vesicles by peptide alone: did not permeabilize lipid vesicles
[4]
  Amount of soluble α-syn monomer left in the supernatant, in words: decrease solubility
[5]
  Morphology (TEM): L, T, I
  Morphology of α-syn aggregates (TEM), in words: longer and thinner fibrils

## CC[C@H](C)[C@H](NC(=O)[C@H](Cc1c[nH]c2ccccc12)NC(=O)[C@H](CCCNC(=N)N)NC(=O)[C@H](Cc1c[nH]c2ccccc12)NC(=O)[C@H](CCCCN)NC(=O)[C@@H](NC(=O)[C@H](CCCCN)NC(=O)[C@H](CCC(N)=O)NC(=O)[C@@H](N)CC(N)=O)[C@@H](C)CC)C(=O)N[C@@H](CCC(N)=O)C(=O)N[C@@H](CCCNC(=N)N)C(=O)N[C@@H](Cc1ccccc1)C(=O)N[C@@H](CCCNC(=N)N)C(=O)N[C@@H](CCCCN)C(=O)N[C@@H](CCCCN)C(=O)N[C@@H](CCSC)C(=O)O [p235] (H-NQKIKWRWIQRFRKKM-OH; N-terminus and C-terminus assumed)
[1]
  Far-UV CD (β-sheet structures): ↓↓↓β
[2]
  Toxicity to SH-SY5Y cells, in words: slight toxicity
[3]
  Peptide concentration from which membrane toxicity is shown: > 10^−2 mg/ml
[5]
  Morphology of α-syn aggregates (TEM), in words: nonfibrillar (amorphous) accumulations

## CC[C@H](C)[C@H](NC(=O)[C@H](Cc1ccccc1)NC(=O)[C@H](Cc1c[nH]c2ccccc12)NC(=O)[C@H](CCCNC(=N)N)NC(=O)[C@H](CC(N)=O)NC(=O)[C@@H](NC(=O)[C@H](CCC(N)=O)NC(=O)[C@H](CCCCN)NC(=O)[C@@H](N)CCSC)[C@@H](C)CC)C(=O)N[C@@H](CCCNC(=N)N)C(=O)N[C@@H](Cc1c[nH]c2ccccc12)C(=O)N[C@@H](CCC(N)=O)C(=O)N[C@@H](CCCCN)C(=O)N[C@@H](CCCCN)C(=O)N[C@@H](CCCNC(=N)N)C(=O)N[C@@H](CCCCN)C(=O)O [p249] (H-MKQINRWFIRWQKKRK-OH; N-terminus and C-terminus assumed)
[1]
  Far-UV CD (β-sheet structures): ↓↓↓β
[2]
  Toxicity to SH-SY5Y cells, in words: slight toxicity
  Cell viability (MTT): 80%
[3]
  Peptide concentration from which membrane toxicity is shown: > 10^−2 mg/ml
[4]
  Amount of soluble α-syn monomer left in the supernatant, in words: decrease solubility
  Soluble α-syn left in supernatant (SDS-PAGE gel): ↓↓
[5]
  Morphology of α-syn aggregates (TEM), in words: nonfibrillar (amorphous) accumulations

## RQIKIWFQNRRFKWKK [p222, penetratin with modulated hydrophobicity]
[1]
  Far-UV CD (β-sheet structures): ↓↓↓β
[2]
  Toxicity to SH-SY5Y cells, in words: slight toxicity
[3]
  Peptide concentration from which membrane toxicity is shown: > 10^−4 mg/ml
[4]
  Amount of soluble α-syn monomer left in the supernatant, in words: decrease solubility
  Soluble α-syn left in supernatant (SDS-PAGE gel): ↓↓
[5]
  Morphology (TEM): S, N
  Morphology of α-syn aggregates (TEM), in words: needle-shaped and short fibrils
